A word on the minimal effective dose: it is the smallest amount tested that counted as effective. Broadly, the ED50 is the dose that gives a 50% effect, or the effect in half of the subjects. A high value points to weaker potency.

These results are taken from patent US4044043A, “Derivatives of 9-oxo-13-trans-prostenoic acid esters” (American Cyanamid Company, priority 1975, dated 1977).

Assay [1] relates to diastolic blood pressure. The experiment in a line: Prostaglandin-like hypotensive activity in anesthetized rats (minimal dose for about 10 mm. decrease in diastolic blood pressure). The assay is classed as in vivo, Male Wistar strain rats. The settings on record: Rattus norvegicus; intravenous; decrease of about 10 mm. in diastolic blood pressure. In outline: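 Male Wistar rats (~250 g), pentobarbital 30 mg./kg. i.v. and hexamethonium 2 mg./kg. i.v., iliac artery cannulated for blood pressure. Compounds in saline-Tween 80 given i.v. at 0.1–10.0 mg./kg.; value is the minimal dose giving ~10 mm. drop in diastolic pressure.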

For assay [2], the system named is Microsporum canis ATCC 10214. The experiment in a line: agar-dilution streak-plate antimicrobial assay. The assay is classed as cell-based. The settings on record: ATCC10214, read-out: Minimal inhibitory conc. (1). The method, boiled down: (§1)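 Test solutions at 2.5 mg/ml serially diluted two-fold, then 1 ml mixed into 9 ml nutrient agar suited to bacteria or fungi. Plates streaked with overnight broth cultures or saline spore suspensions, then incubated. MIC (μg/ml) is the concentration giving complete growth inhibition by visual inspection.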

The subject of assay [3] is Microsporum gypseum ATCC 14683. The experiment in a line: agar-dilution streak-plate antimicrobial assay. The settings on record: Nannizzia gypsea, ATCC14683, read-out: Minimal inhibitory conc. (2). The assay is classed as cell-based. In outline: as §1
The subject of assay [4] is Trichophyton mentagrophytes E 11. The experiment in a line: agar-dilution streak-plate antimicrobial assay. The assay is classed as cell-based. The settings on record: E11, read-out: Minimal inhibitory conc. (4). The method, boiled down:
as §1

In assay [5] the test system is Trichophyton rubrum E 97. The experiment in a line: agar-dilution streak-plate antimicrobial assay. The assay is classed as cell-based. The settings on record: E97, read-out: Minimal inhibitory conc. (5). The method, boiled down:
as §1

Assay [6] relates to Trichophyton tonsurans NIH 662. The experiment in a line: agar-dilution streak-plate antimicrobial assay. The assay is classed as cell-based. Particulars: NIH662, read-out: Minimal inhibitory conc. (3). The method, boiled down:
as §1

In assay [7] the test system is gastric acid secretion. Nature of the assay: Inhibition of basal Gastric Acid Secretion (Acute Gastric Fistula Rat). The assay is classed as in vivo, Female Sprague-Dawley rats. The settings on record: 2 h, 10 mg./kg. intraduodenal, B: 120 minute collection. As for the experimental part: Inhibition of basal gastric acid secretion was determined in the acute gastric fistula rat as follows. Female Sprague-Dawley rats (Charles River Laboratories) weighing 140-160 grams are fasted in individual cages for 18-24 hours. The rats are then lightly anesthetized with ether and their front teeth extracted to avoid destruction of the plastic cannula. A midline incision is then made and the stomach and duodenum exposed. A flanged polyvinyl tube is inserted into the fundic portion of the stomach and secured with a purse string suture line using 4-0 Mersilene. The rat is then dosed by injection of the compound into the duodenum (1.0 ml. per 100 gram body weight). After dosing, the abdominal wall and skin are closed using metal wound clips. The rat is replaced in a cage containing a longitudinal slit to allow the polyvinyl tube to hang freely. An 8 ml. plastic collecting tube is attached to the flanged cannula and hangs freely below the cage. The first 30 minute sample is discarded designating this time as zero. The collecting tube is attached again and samples removed at the end of 60 and 120 minutes. Those samples are referred to as "A" and "B" in the table. The hourly samples are then transferred to a 15 ml. centrifuge tube and centrifuged for 5-10 minutes. Total and sediment volume are then recorded with the supernatant volume being used as volume of secretion. A 1 ml. or less aliquot is then removed and placed in a 50 ml. beaker containing 10 ml. of distilled water. This sample is then titrated using 0.01N NaOH to pH 7.0 using a Beckman zeromatic pH meter. Volume, titratable acidity (meq/L) and total acid output (μ eq/hour) are recorded. Percent inhibition is determined by comparison with the appropriate control. Groups of three rats were used. All compounds are administered in vehicle (0.5% methocel, 0.4% Tween 80, saline) at a constant volume of 1 ml./100 gram rat. Samples were sonicated with care to prevent overheating.

Assay [8] concerns Mycobacterium smegmatis ATCC 606. The experiment in a line: agar-dilution streak-plate antimicrobial assay. The assay is classed as cell-based. The settings on record: Mycolicibacterium smegmatis, ATCC606, read-out: Minimal inhibitory conc. (6). The method, boiled down:
as §1

In assay [9] the test system is Staphylococcus aureus Rose ATCC 14154. The experiment in a line: agar-dilution streak-plate antimicrobial assay. Particulars: ATCC14154, read-out: Minimal inhibitory conc. (7). The assay is classed as cell-based. In outline: as §1
Assay [10] deals with Streptococcus pyogenes C 203. Nature of the assay: agar-dilution streak-plate antimicrobial assay. Particulars: C203, read-out: Minimal inhibitory conc. (8). The assay is classed as cell-based. The method, boiled down:
as §1

Assay [11] deals with dl-PGE1-induced contraction of gerbil colon. Nature of the assay: Inhibition of dl-PGE1-Induced Contraction of Gerbil Colon (prostaglandin antagonist action). The assay is classed as cell-based, gerbils (Meriones unguiculatus). The settings on record: Meriones unguiculatus, 1 min; sub-maximal challenge, 20 ng./ml. dl-PGE1; 50% inhibition of maximum response; read-out: ID50 vs. 20 ng. of PGE1/ml. In outline: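 Ascending colon from male gerbils, held in De Jalon's solution at 37 °C under 95% O2/5% CO2 with 0.5 g resting tension, contraction recorded isometrically. 1 min compound exposure, then 1 min dl-PGE1 at 200 ng/ml (maximal) or 20 ng/ml (sub-maximal). Approximate ID50 taken from a concentration series against the preceding agonist-only cycle.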

Assay [12] deals with bronchospasms elicited by 5-hydroxytryptamine. Nature of the assay: Bronchodilator Activity (Konzett Assay) against 5-hydroxytryptamine. The assay is classed as in vivo, guinea pigs. The settings on record: Cavia porcellus; three logarithmic cumulative intravenous doses. In outline:
(§2)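 Guinea pigs given intravenous spasmogen (5-hydroxytryptamine, histamine or acetylcholine) per Konzett procedure. ED50 derived from three logarithmic cumulative intravenous doses of test compound.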

Assay [13] relates to bronchospasms elicited by histamine. The experiment in a line: Bronchodilator Activity (Konzett Assay) against histamine. The assay is classed as in vivo, guinea pigs. Particulars: Cavia porcellus; three logarithmic cumulative intravenous doses. The method, boiled down:
as §2

For assay [14], the system named is bronchospasms elicited by acetylcholine. Nature of the assay: Bronchodilator Activity (Konzett Assay) against acetylcholine. The assay is classed as in vivo, guinea pigs. The settings on record: Cavia porcellus; three logarithmic cumulative intravenous doses. In outline: as §2

Molecules are shown by their SMILES. ≈ marks a conversion by molar mass, not a printed value. Where two headings read alike, the source gives them in different places. Some results are limits rather than exact numbers.

The compound `CCCCCC/C=C/[C@@H]1CCC(=O)[C@H]1CC(=O)O` (relative stereo) [9-oxo-3,4,5,6,7-pentanor-13-trans-prostenoic acid] had a minimal effective dose in [1] of 2 mg/kg. In addition, the MIC is 250 µg/mL (≈ 991 µM) in assay [2]; 250 µg/mL (≈ 991 µM) in [3]; 250 µg/mL (≈ 991 µM) in assay [4]; 250 µg/mL (≈ 991 µM) in [5]; 125 µg/mL (≈ 495 µM) in assay [6]. The inhibition in vivo at 10 mg/kg worked out at 64% in assay [7] (read-out: % Inhibition Total Acid Output) and 48% in assay [7] (read-out: % Inhibition Total Acidity).

On to `CCCCCC/C=C/[C@H]1CCC(=O)[C@@H]1CCCCC(=O)O` (relative stereo) [9-oxo-6,7-dinor-13-trans-prostenoic acid], for which the minimal effective dose in assay [1] worked out at 2 mg/kg. In addition, the MIC in assay [2], in assay [3], in assay [8], in assay [9], in [10] and in assay [4] was 250 µg/mL (≈ 849 µM) in each case. Also, the MIC in assay [5] and in assay [6] was 250 µg/mL (≈ 849 µM) each time. The IC50 in assay [11] lay within 10 to 20 µg/mL (≈ 34 to 67.9 µM).

For the compound `CCOC(=O)CCCCCC[C@H]1C(=O)CC[C@@H]1/C=C/C(C)C` (relative stereo) [ethyl 15-methyl-9-oxo-17,18,19,20-tetranor-13-trans-prostenoate], the MIC was 250 µg/mL (≈ 810 µM) in assay [2]; 250 µg/mL (≈ 810 µM) in assay [3]; 62 µg/mL (≈ 201 µM) in assay [8]; 250 µg/mL (≈ 810 µM) in assay [4]; 250 µg/mL (≈ 810 µM) in assay [5]; 250 µg/mL (≈ 810 µM) in assay [6].

In the case of `CCOC(=O)CCCCCC[C@H]1C(=O)CC[C@@H]1/C=C/CCCCCCCl` (relative stereo) [ethyl 20-chloro-9-oxo-13-trans-prostenoate], the minimal effective dose in assay [1] worked out at 0.5 mg/kg. Moreover, the MIC in assay [8], in assay [4], in assay [5] and in assay [6] was 250 µg/mL (≈ 649 µM) in each case.

In assay [1], `CCCCCC/C=C/[C@@H]1CCC(=O)[C@H]1CCCCCCC(=O)OCCN(C)C` (relative stereo) [β-dimethylaminoethyl 9-oxo-13-trans-prostenoate] came in with a minimal effective dose of 0.5 to 2 mg/kg. Further, the MIC was found to be 250 µg/mL (≈ 635 µM) in assay [2]; 10 µg/mL (≈ 25.4 µM) in [8]; 50 µg/mL (≈ 127 µM) in assay [9]; 10 µg/mL (≈ 25.4 µM) in assay [10]; 250 µg/mL (≈ 635 µM) in assay [6].

`CCCCCCC=CC1CCC(O)C1CCCCC(=O)O` (stereo not drawn) [9-hydroxy-6,7-dinor-13-trans-prostenoic acid] returned a minimal effective dose in assay [1] of 2 mg/kg. For the same compound, the MIC in assay [2] came out at 250 µg/mL (≈ 843 µM); in assay [3] it was 62 µg/mL (≈ 209 µM); in [8], 62 µg/mL (≈ 209 µM); in assay [9], 250 µg/mL (≈ 843 µM); in assay [10], 62 µg/mL (≈ 209 µM); in assay [4], 62 µg/mL (≈ 209 µM). Further, the MIC was found to be 250 µg/mL (≈ 843 µM) in assay [5] and 62 µg/mL (≈ 209 µM) in [6]. For the same compound, the ED50 in assay [12] was above 10 mg/kg; in assay [13], 6.06 mg/kg; in assay [14], above 10 mg/kg. The IC50 in assay [11] lay in the range of 10 to 12 µg/mL (≈ 33.7 to 40.5 µM).

Consider `CCCCCC/C=C/[C@H]1CCC(O)[C@@H]1CCCCCCC(=O)O` (stereo partly drawn) [9-hydroxy-13-trans-prostenoic acid, 9α- and 9β-hydroxy-13-trans-prostenoic acid], for which the minimal effective dose in assay [1] is 2 mg/kg. For the same compound, the MIC came to 50 µg/mL (≈ 154 µM) in assay [2]; 25 µg/mL (≈ 77 µM) in assay [3]; 25 µg/mL (≈ 77 µM) in [8]; 50 µg/mL (≈ 154 µM) in [9]; 25 µg/mL (≈ 77 µM) in assay [10]; 50 µg/mL (≈ 154 µM) in assay [4]. Besides, in [6], the MIC stood at 50 µg/mL (≈ 154 µM).

`CC(C)CCC=CC1CCC(O)C1CCCCCCC(=O)O` (stereo not drawn) [9-hydroxy-17-methyl-18,19-dinor-13-trans-prostenoic acid] gave a minimal effective dose in assay [1] of 0.2 to 2 mg/kg. In addition, the MIC was 62 µg/mL (≈ 200 µM) in [3]; 62 µg/mL (≈ 200 µM) in [8]; 125 µg/mL (≈ 403 µM) in [9]; 25 µg/mL (≈ 80.5 µM) in [10]; 62 µg/mL (≈ 200 µM) in assay [4]; 250 µg/mL (≈ 805 µM) in assay [5]. The MIC in assay [6] stood at 62 µg/mL (≈ 200 µM). Also, the IC50 in assay [11] lay within 5 to 10 µg/mL (≈ 16.1 to 32.2 µM).

In [1], `O=C(O)CCCCCCC1C(O)CCC1C=CCCCCl` (stereo not drawn) [9-hydroxy-20-chloro-17,18,19-trinor-13-trans-prostenoic acid] came in with a minimal effective dose of 2 mg/kg. Besides, the MIC in assay [3] was found to be 250 µg/mL (≈ 789 µM); in assay [10], 62 µg/mL (≈ 196 µM); in assay [4] it was 250 µg/mL (≈ 789 µM); in [6], 250 µg/mL (≈ 789 µM). Further, the ED50 in assay [12] was 17.9 mg/kg; in assay [13], above 10 mg/kg; in assay [14], above 10 mg/kg.

In the case of `CCOC(=O)CCCCCC[C@H]1C(=O)CC[C@@H]1/C=C/CCC[S+]([O-])CC` (stereo partly drawn) [ethyl 9-oxo-18-oxythia-13-trans-prostenoate], in assay [1], the minimal effective dose came to 2 mg/kg. The MIC in [8], in assay [4], in assay [5] and in assay [6] was 250 µg/mL (≈ 650 µM) throughout.
